Data published in patent US9724408B2, “Compositions and methods for activating stimulator of interferon gene-dependent signalling” (ADURO BIOTECH, INC., priority 2013, dated 2017).

What was measured:
[1] = system: CT26 colon carcinoma cells; experiment: CT26 lung metastasis survival model, subcutaneous CDN; type: in vivo, BALB/c mice; settings: CT26 intravenous, 25 μg subcutaneous at base of the tail, day 1 and one week later, log-rank test, FIG. 19A
Method: To further assess the ability of the derivative molecules to promote anti-tumor immunity, CT26 colon carcinoma cells (2×10^5 cells in 100 μL PBS) were implanted by intravenous injection into 6-8 week old female BALB/c mice and assessed for overall survival. The CDN compounds (25 μg in a total volume of 100 μL HBSS) were administered one day post tumor implantation by subcutaneous injection into the base of the tail. Mice were boosted with an additional injection one week later for a total of two vaccinations.

[2] = system: CT26 colon carcinoma cells; experiment: CT26 colon carcinoma flank tumor model, intratumoral CDN; type: in vivo, BALB/c mice; settings: for complete inhibition of tumor growth of established CT26 tumors: every three days, three injections, 8 mice per group, FIG. 19B
Method: Either CT26 colon carcinoma cells (1×10^5 cells in 100 μL PBS) or 4T1 mammary carcinoma cells (1×10^5 cells in 100 μL PBS) were implanted subcutaneously on the flanks of 6-8 week old female BALB/c mice (8 mice per group). Treatments began when tumors reached a volume of approximately 75 mm^3, which was approximately day 14 post tumor implantation. The compounds Rp, Rp dithio cyclic [A(2′,5′)pA(3′,5′)p] (ML RR-CDA) or Rp, Rp dithio cyclic [G(2′,5′)pG(3′,5′)p] (ML RR-CDG) compounds (25 μg in a total volume of 40 μL HBSS), or HBSS vehicle control, and Rp, Rp dithio cyclic [A(2′,5′)pA(3′,5′)p] (ML RR-CDA) (50 μg in a total volume of 40 μL HBSS) or HBSS vehicle control, were administered by subcutaneous injection into the center of the tumor using a 27 gauge needle. Injections were repeated every three days, for a total of three intratumoral injections.
To determine whether the synthetic derivative CDN molecules elicit durable and effective anti-tumor T-cell immunity, 6-8 week old female BALB/c mice (8 mice per group) were implanted with CT26 colon carcinoma cells (1×10^5 cells in 100 μL PBS). Mice were treated with Rp, Rp dithio cyclic [A(2′,5′)pA(3′,5′)p] (ML RR-CDA) compound ([…] in a total volume of 40 μL HBSS) or HBSS vehicle control, and tumor growth was monitored as per previous example. Mice were bled on day 18 post tumor implantation and PBMCs were isolated by Ficoll gradient (Miltenyi Biotech). 5×10^4 PBMCs were stimulated overnight in an IFNγ ELISpot assay with media alone (unstimulated), or with 1 μM of the endogenous H-2 L^d-restricted tumor rejection antigen AH1 peptide in the presence of 1×10^5 naïve splenocytes as feeder cells. IFN-γ ELISpot plates were developed and quantified using a CTL plate reader and ImmunoSpot software. On day 55 post tumor implantation, surviving mice and age-matched naïve control mice were implanted on the contralateral flank with either CT26 or 4T1 (both 1×10^5 cells in 100 μL PBS) tumor cells (4 mice per group), and monitored for tumor growth.

THP1-Blue™ ISG cells = experiment: Type I interferon induction in THP1-Blue ISG reporter cells (QUANTI-Blue, A655); type: cell-based, human; settings: for IFN-β levels: 50 μM for 30 minutes, supernatants after overnight incubation, FIG. 10
Method: To determine the relative level of type I interferon induced in human cells by each of the native and derivative molecules as a signature of adjuvant potency, 4×10^5 THP1-Blue™ ISG cells (a human monocyte cell line transfected with an IRF-inducible secreted embryonic alkaline phosphatase reporter gene (Invivogen) which express alkaline phosphatase under the control of a promoter comprised of five IFN-stimulated response elements) were incubated with 100 μM of cyclic [G(3′,5′)pG(3′,5′)p] (CDG), cyclic [G(2′,5′)pG(3′,5′)p] (mixed linkage, or ML-CDG), or HBSS for 30 minutes at 37° C. with 5% CO2. After 30 minutes, cells were washed and plated in 96-well dish in RPMI media containing 10% FBS, and incubated at 37° C. with 5% CO2. Cell culture supernatants from each sample were collected after overnight incubation, and 20 μL of the cell culture supernatants was added to 180 μL QUANTI-Blue reagent (Invivogen) and incubated for 45 minutes to evaluate type I interferon protein levels. Readings at Absorbance 655 nm were taken every 3 minutes using a Versa Max kinetic spectrophotometer (Molecular Diagnostics).
[…]. After 30 minutes, cells were washed and plated in 96-well dish in RPMI media containing 10% FBS, and incubated at 37° C. with 5% CO2. Cell culture supernatants from each sample were collected after overnight incubation, and 20 μL of the cell culture supernatants was added to 180 μL QUANTI-Blue reagent (Invivogen) and incubated for 45 minutes. Readings at Absorbance 655 nm were taken at 15 minutes using a SpectraMax spectrophotometer (Molecular Diagnostics).
The induction of type I interferon in human cells was measured to evaluate the potency of untreated and phosphodiesterase-treated oxo, Rp monothio and Rp, Rp dithio derivatives. […]. After 30 minutes, cells were washed and plated in a 96-well dish in RPMI media containing 10% FBS, and incubated at 37° C. with 5% CO2. Cell culture supernatants from each sample were collected after 16 hr incubation, and 20 μL of the cell culture supernatants was added to 180 μL QUANTI-Blue reagent (Invivogen) and incubated for 25 minutes to evaluate type I interferon protein levels. Readings at Absorbance 655 nm were measured with a Versa Max spectrophotometer (Molecular Diagnostics).

B16 melanoma cells = experiment: B16 melanoma tumor model in STING-deficient mice, intratumoral CDN; type: in vivo, goldenticket STING−/− mice; settings: ML RR-CDG 25 μg, ML RR-CDA 50 μg, CpG 1668 50 μg, three injections, FIG. 20B
Method: To determine whether the effects of the derivative molecules are STING-dependent, B16 melanoma cells (5×10^4 cells in 100 μL PBS) were implanted on the right flanks of 6-8 week old female goldenticket STING^−/− mice, or wild-type C57BL/6 control mice (5 mice per group). Treatments began when tumors reached a volume of approximately 75 mm^3, on day 14 post tumor implantation. The compounds administered were Rp, Rp dithio cyclic [G(2′,5′)pG(3′,5′)p] (ML RR-CDG) (25 μg in a total volume of 40 μL HBSS), Rp, Rp dithio cyclic [A(2′,5′)pA(3′,5′)p] (ML RR-CDA) (50 μg in a total volume of 40 μL HBSS), the TLR9 agonist CpG 1668 (50 μg in a total volume of 40 μL HBSS), or HBSS vehicle control. Mice were treated by subcutaneous injection into the center of tumor only using a 27 gauge needle. Injections were repeated every three days, for a total of three intratumoral injections.

SMILES | survival rates [1] | rejection of established CT26 colon carcinomas ([2]; 50 mg in a total volume of 40 μL HBSS, FIG. 21A) | complete inhibition of tumor growth of established CT26 tumors [2] | IFN-β levels (THP1-Blue™ ISG cells) | induction of type I interferon, untreated compounds (THP1-Blue™ ISG cells; 50 μM, mock treated, 16 hr incubation, FIG. 12) | tumor growth in STING−/− mice (B16 melanoma cells)
Nc1ncnc2c1ncn2[C@@H]1O[C@@H]2COP(O)(=S)O[C@@H]3C(O)[C@@H](COP(O)(=S)O[C@H]2[C@H]1O)O[C@H]3n1cnc2c(N)ncnc21 (stereo partly shown) [ML RR-CDA, dithio-[RP, RP]-cyclic-[A(2′,5′)pA(3′,5′)p]] | significantly higher survival rates compared to the cyclic [A(2′,5′)pA(3′,5′)p] (ML CDA) molecule | all mice treated with ML RR-CDA rejected the growth of established CT26 colon carcinomas | completely inhibited tumor growth of all established CT26 tumors | significantly higher IFN-β levels that either the unmodified CDA or ML CDA molecules | more potent inducers of type I interferon than the oxo | not inhibited
Nc1nc2c(ncn2[C@@H]2O[C@@H]3CO[P@@](O)(=S)O[C@@H]4[C@H](O)[C@@H](CO[P@@](O)(=S)O[C@H]3[C@H]2O)O[C@H]4n2cnc3c(=O)[nH]c(N)nc32)c(=O)[nH]1 [ML RR-CDG, dithio-[RP,RP]-cyclic-[G(2′,5′)pG(3′,5′)p]] | significantly higher survival rates compared to the cyclic [G(2′,5′)pG(3′,5′)p] (ML CDG) molecule |  | 7 out of 8 | significantly higher levels of IFN-β than the unmodified cyclic c-di-GMP (CDG) or modified CDG molecules |  | not inhibited
